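Exposure lasted 48 hours, with cells grown in 96-well plates and compounds tested at five concentrations. At the GI50, growth is halved. TGI: concentration producing complete growth inhibition.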
What was measured:
Test in all cases: growth of human tumour cells (NCI), 48 h
[1] = system: HS 578T breast
[2] = system: HCT-15 colon
[3] = system: CAKI-1 renal
[4] = system: NCI/ADR-RES ovarian
[5] = system: HCC-2998 colon
[6] = system: NCI-H460 lung
[7] = system: SN12C renal
[8] = system: MCF7 breast
[9] = system: OVCAR-4 ovarian
[10] = system: BT-549 breast
[11] = system: RPMI-8226 leukemia
[12] = system: MDA-MB-435
[13] = system: M14 melanoma
[14] = system: NCI-H23 lung
[15] = system: SK-MEL-28 melanoma
[16] = system: SF-539 CNS
[17] = system: UACC-62 melanoma
[18] = system: A549 NSCLC
[19] = system: HOP-62 NSCLC
[20] = system: NCI-H226 lung
[21] = system: SK-MEL-2 melanoma
[22] = system: MALME-3M melanoma
[23] = system: OVCAR-8 ovarian
[24] = system: HOP-92 NSCLC
[25] = system: OVCAR-3 ovarian
[26] = system: SNB-75 CNS
[27] = system: PC-3 prostate
[28] = system: SK-MEL-5 melanoma
[29] = system: A498 renal
[30] = system: SK-OV-3 ovarian
[31] = system: UO-31 renal
[32] = system: HCT-116 colon
[33] = system: OVCAR-5 ovarian
[34] = system: SF-268 CNS
[35] = system: ACHN renal
[36] = system: RXF 393 renal
[37] = system: MDA-MB-231 breast
[38] = system: HT29 colon
[39] = system: SW-620 colon
[40] = system: UACC-257 melanoma
[41] = system: SF-295 CNS
[42] = system: 786-0 renal
[43] = system: CCRF-CEM leukemia
[44] = system: TK-10 renal
[45] = system: MOLT-4 leukemia
[46] = system: U251 CNS
[47] = system: DU-145 prostate
[48] = system: NCI-H522 lung
[49] = system: COLO 205 colon
[50] = system: IGROV1 ovarian
[51] = system: EKVX NSCLC
[52] = system: HL-60(TB) leukemia
[53] = system: SNB-19 CNS
[54] = system: T-47D breast
[55] = system: KM12 colon
[56] = system: LOX IMVI melanoma

Cc1ncc(C(=O)Nc2ccc(CN3CCN(C)CC3)c(C(F)(F)F)c2)cc1C#Cc1c(N)ncc2ccc(F)cc12
GI50 [1]: 588 nM | TGI [1]: 2740 nM | GI50 [2]: 559 nM | TGI [2]: 3.15 µM | GI50 [3]: 1050 nM | TGI [3]: 6.16 µM | GI50 [4]: 1260 nM | TGI [4]: 4.25 µM | GI50 [5]: 1010 nM | TGI [5]: 7.81 µM | GI50 [6]: 643 nM | TGI [6]: 1470 nM | GI50 [7]: 422 nM | TGI [7]: 3.05 µM | GI50 [8]: 503 nM | TGI [8]: 1330 nM | GI50 [9]: 2600 nM | TGI [9]: 10.8 µM | GI50 [10]: 1490 nM | TGI [10]: 4.12 µM | GI50 [11]: 673 nM | TGI [11]: 2170 nM | GI50 [12]: 170 nM | TGI [12]: 1040 nM | GI50 [13]: 128 nM | TGI [13]: 690 nM | GI50 [14]: 596 nM | TGI [14]: 1370 nM | GI50 [15]: 415 nM | TGI [15]: 1230 nM | GI50 [16]: 624 nM | TGI [16]: 1300 nM | GI50 [17]: 282 nM | TGI [17]: 2840 nM | GI50 [18]: 631 nM | TGI [18]: 1440 nM | GI50 [19]: 1180 nM | TGI [19]: 8.18 µM | GI50 [20]: 624 nM | TGI [20]: 3.65 µM | GI50 [21]: 1050 nM | TGI [21]: 5.77 µM | GI50 [22]: 105 nM | TGI [22]: 601 nM | GI50 [23]: 931 nM | TGI [23]: 2410 nM | GI50 [24]: 48.9 nM | TGI [24]: 468 nM | GI50 [25]: 789 nM | TGI [25]: 1540 nM | GI50 [26]: 774 nM | TGI [26]: 2270 nM | GI50 [27]: 870 nM | TGI [27]: 3.14 µM | GI50 [28]: 678 nM | TGI [28]: 1530 nM | GI50 [29]: 930 nM | TGI [29]: 1740 nM | GI50 [30]: 4.79 µM | TGI [30]: 12 µM | GI50 [31]: 602 nM | TGI [31]: 2800 nM | GI50 [32]: 176 nM | TGI [32]: 873 nM | GI50 [33]: 669 nM | TGI [33]: 3.03 µM | GI50 [34]: 717 nM | TGI [34]: 2500 nM | GI50 [35]: 374 nM | TGI [35]: 3.23 µM | GI50 [36]: 608 nM | TGI [36]: 1290 nM | GI50 [37]: 129 nM | TGI [37]: 743 nM | GI50 [38]: 68.9 nM | TGI [38]: 651 nM | GI50 [39]: 274 nM | TGI [39]: 1070 nM | GI50 [40]: 649 nM | TGI [40]: 3.22 µM | GI50 [41]: 3.45 µM | TGI [41]: 11.3 µM | GI50 [42]: 756 nM | TGI [42]: 1560 nM | GI50 [43]: 809 nM | TGI [43]: 2140 nM | GI50 [44]: 715 nM | TGI [44]: 1520 nM | GI50 [45]: 579 nM | TGI [45]: 1740 nM | GI50 [46]: 826 nM | TGI [46]: 1580 nM | GI50 [47]: 692 nM | TGI [47]: 1390 nM | GI50 [48]: 668 nM | TGI [48]: 1830 nM | GI50 [49]: 197 nM | TGI [49]: 1230 nM | GI50 [50]: 301 nM | TGI [50]: 6.27 µM | GI50 [51]: 1540 nM | TGI [51]: 9.37 µM | GI50 [52]: 319 nM | TGI [52]: 2060 nM | GI50 [53]: 787 nM | TGI [53]: 1490 nM | GI50 [54]: 4.1 µM | TGI [54]: 16.3 µM | GI50 [55]: 5 nM | TGI [55]: 646 nM | GI50 [56]: 184 nM | TGI [56]: 841 nM

From PubChem BioAssay (NCI)
